# Test results taken from ChEMBL document CHEMBL1147628, “Identification of novel potent bicyclic peptide deformylase inhibitors” (Bioorg Med Chem Lett, 2004).
# Target: T1, Peptide deformylase (Staphylococcus aureus subsp. aureus Mu50, UniProt P68825)
# T1 sequence (P68825 whole entry): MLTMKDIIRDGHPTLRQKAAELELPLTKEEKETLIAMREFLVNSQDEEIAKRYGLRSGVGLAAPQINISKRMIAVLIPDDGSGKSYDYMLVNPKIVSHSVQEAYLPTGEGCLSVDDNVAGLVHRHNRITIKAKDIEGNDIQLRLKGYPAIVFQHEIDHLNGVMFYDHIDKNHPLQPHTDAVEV
# Test: Inhibitory activity towards Ni-peptide deformylase of Staphylococcus aureus
row,Structure (SMILES),IC50
1,O=C(CC1Sc2ccccc2N(CC(=O)N2CCCC2)C1=O)NO (stereo not given),397 nM
2,O=C(CC1Cc2ccccc2N(CC2CC2)C1=O)NO (stereo not given),175 nM
3,N#CCN1C(=O)C(CC(=O)NO)Sc2ccccc21 (stereo not given),515 nM
4,CN1C(=O)C(CC(=O)NO)Sc2ccccc21 (stereo not given),37 nM
5,O=C(CC1Sc2ccccc2N(CC2CCC2)C1=O)NO (stereo not given),41 nM
6,O=C(CC1Sc2ccccc2N(CC(=O)Nc2cc(F)ccc2F)C1=O)NO (stereo not given),58 nM
7,NNC(=O)CC1Sc2ccccc2NC1=O (stereo not given),330 nM
8,O=C1Nc2ccccc2SC1CNO (stereo not given),> 2000 nM
9,O=C(CC1Sc2ccccc2N(CCC2CCCCC2)C1=O)NO (stereo not given),57 nM
10,CC(C)(C)C(=O)CN1C(=O)C(CC(=O)NO)Sc2ccccc21 (stereo not given),50 nM
11,O=C(O)CC1Sc2ccccc2NC1=O (stereo not given),> 2000 nM
12,CON(C)C(=O)CC1Sc2ccccc2NC1=O (stereo not given),> 2000 nM
13,CONC(=O)CC1Sc2ccccc2NC1=O (stereo not given),74 nM
14,O=C(CC1C(=O)Nc2ccccc2S1(=O)=O)NO (stereo not given),> 2000 nM
15,O=C(CC1Sc2ccccc2N(CC(=O)Nc2ccccn2)C1=O)NO (stereo not given),343 nM

# Stronger by IC50, values ahead:
row,IC50,Structure (SMILES)
1,12 nM,O=C(CC1Sc2ccccc2N(Cc2ccccc2)C1=O)NO (stereo not given)
2,< 5 nM,CCCCCN1C(=O)C(CC(=O)NO)Sc2ccccc21 (stereo not given)
3,18 nM,O=C(CC1Sc2ccccc2N(CC2CCCCO2)C1=O)NO (stereo not given)
4,< 5 nM,CC(C)CCCN1C(=O)C(CC(=O)NO)Sc2ccccc21 (stereo not given)
5,< 5 nM,CC(C)CCN1C(=O)C(CC(=O)NO)Sc2ccccc21 (stereo not given)
6,< 5 nM,COCCN1C(=O)C(CC(=O)NO)Sc2ccccc21 (stereo not given)
7,< 5 nM,O=C(CC1Sc2ccccc2N(CCc2ccccc2)C1=O)NO (stereo not given)
8,< 5 nM,O=C(CC1Sc2ccccc2NC1=O)NO (stereo not given)
9,< 5 nM,O=C(CC1Sc2ccccc2N(CCC2OCCO2)C1=O)NO (stereo not given)
10,< 5 nM,CCCCC[C@H](CC(=O)NO)C(=O)N[C@H](C(=O)N1CCC[C@H]1CO)C(C)C [ACTINONIN]
